Assay results published in ChEMBL document CHEMBL3217548, “Biological activity and DNA binding studies of 2-substituted benzimidazo[1,2-a]quinolines bearing different amino side chains” (Medchemcomm, 2013).
The source made the active and inactive calls. No cut-off for these calls is given here.

Tests used:
[1] = system: DNA; experiment: Induction of DNA damage in plasmid DNA in E. coli S30 cell-free system assessed as inhibition of EGFP translation at 50 uM after 1 hr by fluorescence assay
[2] = system: MCF7; experiment: Cytotoxicity against human MCF7 cells after 72 hrs by MTT assay; assay type: functional, cell-based; conditions: MCF7, 72 h
[3] = Cytotoxicity against human H460 cells after 72 hrs by MTT assay; assay type: functional, cell-based; conditions: NCI-H460, 72 h
[4] = system: HCT-116; experiment: Cytotoxicity against human HCT116 cells after 72 hrs by MTT assay; assay type: functional, cell-based; conditions: HCT-116, 72 h
[5] = system: Calf thymus DNA; experiment: Binding affinity to calf thymus DNA assessed as DNA intercalation at 1 to 50 uM by circular dichroism analysis; assay type: nucleic-acid assay; conditions: Bos taurus
[6] = species: Homo sapiens; experiment: Inhibition of human DNA topoisomerase 2 assessed as inhibition of DNA cleavage
[7] = target: T1, DNA topoisomerase 1 (Homo sapiens) (UniProt P11387); experiment: Inhibition of human DNA topoisomerase 1 assessed as inhibition of DNA cleavage
T1 sequence (whole entry): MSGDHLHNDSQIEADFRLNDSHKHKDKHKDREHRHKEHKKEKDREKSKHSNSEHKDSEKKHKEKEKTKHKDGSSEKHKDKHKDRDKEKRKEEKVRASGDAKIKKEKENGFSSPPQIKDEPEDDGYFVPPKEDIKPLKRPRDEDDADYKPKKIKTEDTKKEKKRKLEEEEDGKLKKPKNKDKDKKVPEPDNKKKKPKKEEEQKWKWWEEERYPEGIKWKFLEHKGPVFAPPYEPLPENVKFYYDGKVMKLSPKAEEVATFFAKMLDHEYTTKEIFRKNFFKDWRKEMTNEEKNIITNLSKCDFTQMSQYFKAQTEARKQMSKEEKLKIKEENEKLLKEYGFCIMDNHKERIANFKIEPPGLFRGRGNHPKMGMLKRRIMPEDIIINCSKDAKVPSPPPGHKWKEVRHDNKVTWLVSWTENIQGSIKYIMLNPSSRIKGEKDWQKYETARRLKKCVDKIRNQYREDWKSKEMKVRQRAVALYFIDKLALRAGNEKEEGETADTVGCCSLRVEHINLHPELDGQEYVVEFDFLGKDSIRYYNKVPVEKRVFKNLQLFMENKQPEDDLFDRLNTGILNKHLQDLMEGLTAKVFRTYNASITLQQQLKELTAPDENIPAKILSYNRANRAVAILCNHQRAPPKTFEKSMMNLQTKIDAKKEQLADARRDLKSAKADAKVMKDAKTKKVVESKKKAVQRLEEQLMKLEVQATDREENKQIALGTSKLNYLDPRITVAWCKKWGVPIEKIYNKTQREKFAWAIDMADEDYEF

[8] = system: Escherichia coli; experiment: Binding affinity to Escherichia coli pUC19 plasmid assessed as nicked DNA at 5 to 50 uM by ethidium bromide staining-based agarose gel electrophoresis
[9] = system: Calf thymus DNA; experiment: Binding affinity to calf thymus DNA assessed as change in melting temperature at 0.5 drug/DNA ratio by spectrophotometry; assay type: nucleic-acid assay; conditions: Bos taurus
[10] = system: Escherichia coli; experiment: Induction of topoisomerase1-mediated Escherichia coli pUC19 plasmid relaxation at 20 to 50 uM incubated for 45 mins prior to topoisomerase1 addition by agarose gel electrophoresis

CC[C@@]1(O)C(=O)OCc2c1cc1n(c2=O)Cc2cc3ccccc3nc2-1
inhibition [1]: inactive

CCN(CC)CCNc1ccc2cc(C#N)c3nc4ccccc4n3c2c1
IC50 [2]: 300 nM
IC50 [3]: 200 nM
IC50 [4]: 200 nM

CCN(CC)c1ccc2cc(C#N)c3nc4ccccc4n3c2c1
IC50 [2]: 2000 nM
IC50 [3]: 1600 nM
IC50 [4]: 2000 nM

CCCN(CCC)c1ccc2cc(C#N)c3nc4ccccc4n3c2c1
IC50 [2]: 2500 nM
IC50 [3]: 300 nM
IC50 [4]: 500 nM

N#Cc1cc2ccc(N3CCOCC3)cc2n2c1nc1ccccc12
Activity [5]: Active
Activity [6]: inactive
IC50 [2]: 200 nM
Activity [7]: inactive
IC50 [3]: 300 nM
IC50 [4]: 300 nM
Activity [8]: Active
ΔTm [9]: 0 °C
Activity [10]: inactive

O=C(O)CCCc1ccc(N(CCCl)CCCl)cc1 [CHLORAMBUCIL]
inhibition at 50 µM [1]: 45%

CCCCNc1ccc2cc(C#N)c3nc4ccccc4n3c2c1
IC50 [2]: 1000 nM
IC50 [3]: 2000 nM
IC50 [4]: 4000 nM
